Assay results from ChEMBL document CHEMBL5442379, “ASAP - SARS-CoV-2 nsp3 macrodomain single point” (2024).

Target: Replicase polyprotein 1ab (Severe acute respiratory syndrome coronavirus 2) (UniProt P0DTD1)
Description: Functional biochemical assay to identify treatments for viral infectious disease that targets SARS-COV-2 nsp3 macrodomain, whereby the mechanism of action displaces an ADP-Ribose modified peptide from the binding site. Utilizing a time-resolved fluorescence method to measure binding by reading the emitted fluorescence intensity in two wavelengths.

C[C@@H](NC(=O)c1cnn2ccc(C3CCN(C(=O)c4ccccc4)CC3)cc12)c1cc[nH]n1
inhibition (Concentration 49.75 uM, Number of replicates 2.0, Standard deviation 1.723 %): -4.99% | inhibition (Concentration 99.5 uM, Number of replicates 2.0, Standard deviation 0.833 %): -2.77%

Fc1ccc(OC(F)F)c(CNc2cnc3[nH]ncc3c2)c1
inhibition (Concentration 50.0 uM, Number of replicates 2.0, Standard deviation 3.077 %): -6.67%

Cc1cnc(C(=O)N(CCC(=O)N2CCNCC2)Cc2cccc(Cl)c2)nc1
inhibition (Concentration 49.75 uM, Number of replicates 2.0, Standard deviation 2.063 %): -1.49% | inhibition (Concentration 99.5 uM, Number of replicates 2.0, Standard deviation 9.956 %): 6.47%

Cn1cc([C@H]2CCCCN2c2ncnc3[nH]ccc23)cn1
inhibition (Concentration 49.75 uM, Number of replicates 2.0, Standard deviation 3.479 %): 6.39% | inhibition (Concentration 99.5 uM, Number of replicates 2.0, Standard deviation 0.865 %): 8.32%

Cc1nc(NC(=O)c2ccnn2C(C)C)c2cc[nH]c2n1
inhibition (Concentration 50.0 uM, Number of replicates 2.0, Standard deviation 4.637 %): -2.64% | inhibition (Concentration 100.0 uM, Number of replicates 2.0, Standard deviation 4.768 %): -4.35%

O=C(Nc1cnc2[nH]ncc2c1)c1noc2c1CCCC2
inhibition (Concentration 50.0 uM, Number of replicates 2.0, Standard deviation 0.458 %): -1.4%

c1ccc(Cn2ncc3c2CCC[C@@H]3Nc2ncnc3[nH]ccc23)cc1
inhibition (Concentration 50.0 uM, Number of replicates 2.0, Standard deviation 3.356 %): 5.85%

Clc1cnc(OCCNc2ncnc3[nH]ccc23)c(Cl)c1
inhibition (Concentration 50.0 uM, Number of replicates 2.0, Standard deviation 2.048 %): -4.3% | inhibition (Concentration 100.0 uM, Number of replicates 2.0, Standard deviation 3.465 %): -7.69%

c1ccc2sc(CNc3ncnc4[nH]ccc34)nc2c1
inhibition (Concentration 50.0 uM, Number of replicates 2.0, Standard deviation 5.906 %): -0.671%

Cc1cc(NCc2cnc3c(c2)NC(=O)CO3)cnc1C
inhibition (Concentration 50.0 uM, Number of replicates 2.0, Standard deviation 8.489 %): 4.53%

O=S(=O)(NC[C@H]1CCOC1)c1cn2c(n1)CCCC2
inhibition (Concentration 50.0 uM, Number of replicates 2.0, Standard deviation 7.062 %): -3.2%

CC(C)[C@@H](Nc1ncnc2[nH]ccc12)C(=O)N(C)Cc1nnc2n1CCC2
inhibition (Concentration 49.75 uM, Number of replicates 2.0, Standard deviation 4.689 %): -8.89% | inhibition (Concentration 99.5 uM, Number of replicates 2.0, Standard deviation 1.151 %): -6.14%

O=C(Nc1ccccc1)Nc1ccc(C(=O)Nc2cnnc(Cl)c2)cc1
inhibition (Concentration 49.75 uM, Number of replicates 2.0, Standard deviation 1.096 %): -1.72% | inhibition (Concentration 99.5 uM, Number of replicates 2.0, Standard deviation 2.694 %): -0.19%

O=C(Nc1ccccc1)Nc1ccc(C(=O)Nc2nnc(C(F)(F)F)[nH]2)cc1
inhibition (Concentration 49.75 uM, Number of replicates 2.0, Standard deviation 1.534 %): -3.2% | inhibition (Concentration 99.5 uM, Number of replicates 2.0, Standard deviation 0.592 %): -1.46%

Cc1cc(N)ncc1C(=O)N1CCC(c2ccn3ncc(C(=O)N4CCCCC4)c3c2)CC1
inhibition (Concentration 49.75 uM, Number of replicates 2.0, Standard deviation 0.411 %): 19.5% | inhibition (Concentration 99.5 uM, Number of replicates 2.0, Standard deviation 3.667 %): 32.6%

CSc1cccc(NC(=O)c2ncnc3[nH]ccc23)c1
inhibition (Concentration 50.0 uM, Number of replicates 2.0, Standard deviation 4.41 %): -4.67%

Oc1cc(CNc2ncnc3[nH]cnc23)ccn1
inhibition (Concentration 50.0 uM, Number of replicates 2.0, Standard deviation 4.588 %): -0.821% | inhibition (Concentration 100.0 uM, Number of replicates 2.0, Standard deviation 5.781 %): -3.73%

c1ccc2sc([C@@H]3CCCN(c4ncnc5[nH]ccc45)C3)nc2c1
inhibition (Concentration 50.0 uM, Number of replicates 2.0, Standard deviation 1.364 %): -0.779%

O=C(Cc1ccc(F)cc1)Nc1ccc2[nH]ncc2c1
inhibition (Concentration 50.0 uM, Number of replicates 2.0, Standard deviation 1.625 %): 1.14%

O=C(CCN(Cc1cccc(Cl)c1)C(=O)c1cnon1)N1CCNCC1
inhibition (Concentration 49.75 uM, Number of replicates 2.0, Standard deviation 0.478 %): -2.44% | inhibition (Concentration 99.5 uM, Number of replicates 2.0, Standard deviation 0.154 %): -1.08%

Cc1n[nH]nc1C(=O)N1CCC(c2ccn3ncc(C(=O)N4CCCCC4)c3c2)CC1
inhibition (Concentration 49.75 uM, Number of replicates 2.0, Standard deviation 0.483 %): 29.3% | inhibition (Concentration 99.5 uM, Number of replicates 2.0, Standard deviation 0.403 %): 45.8%

Cc1ccnc(C2CCN(c3ncnc4[nH]ccc34)CC2)n1
inhibition (Concentration 50.0 uM, Number of replicates 2.0, Standard deviation 3.755 %): 3.46%

O=C(Cc1ccon1)Nc1ncnc2[nH]cnc12
inhibition (Concentration 50.0 uM, Number of replicates 2.0, Standard deviation 0.023 %): -1.61%

O=C(O)c1cscc1C(=O)N1CCC(c2ccn3ncc(C(=O)N4CCCCC4)c3c2)CC1
inhibition (Concentration 50.0 uM, Number of replicates 2.0, Standard deviation 2.729 %): 47.7% | inhibition (Concentration 100.0 uM, Number of replicates 2.0, Standard deviation 0.311 %): 66.7%

O=C(Cc1n[nH]c2c1CCCC2)Nc1cnc2[nH]ncc2c1
inhibition (Concentration 50.0 uM, Number of replicates 2.0, Standard deviation 2.447 %): -1.26%
